B1: 2.2 kb: FLAG-tagged N-terminal deletion mutant hHEG1 (712-1481) (protein)
chain: MSALLILALVGAAVADYKDDDDKLAAANSSIDLSSYDGEYAQPSTESPVLHTSNLPSYTPTINMPNTSVVLDTDAEFVSDSSSSSSSSSSSSSSSSSSSSGPPLPLPSVSQSHHLFSSILPSTRASVHLLKSTSDASTPWSSSPSPLPVSLTTSTSAPLSVSQTTLPQSSSTPVLPRARETPVTSFQTSTMTSFMTMLHSSQTADLKSQSTPHQEKVITESKSPSLVSLPTESTKAVTTNSPLPPSLTESSTEQTLPATSTNLAQMSPTFTTTILKTSQPLMTTPGTLSSTASLVTGPIAVQTTAGKQLSLTHPEILVPQISTEGGISTERNRVIVDATSGLIPLTSVPTSAKEMTTKLGVTAEYSPASRSLGTSPSPQTTVVSTAEDLAPKSATFAVQSSTQSPTTLSSSASVNSCAVNPCLHNGECVADNTSRGYHCRCPPSWQGDDCSVDVNECLSNPCPSTAMCNNTQGSFICKCPVGYQLEKGICNLVRTFVTEF
B2: 3 kb: FLAG-tagged N-terminal deletion mutant hHEG1 (285-1481) (protein)
chain: MSALLILALVGAAVADYKDDDDKLAAANSSIDLSWLHFYRTAASSPLLDLSSSSESTEKLNNSTGLQSSSVSQTKTMHVATVFTDGGPRTLRSLTVSLGPVSKTEGFPKDSRIATTSSSVLLSPSAVESRRNSRVTGNPGDEEFIEPSTENEFGLTSLRWQNDSPTFGEHQLASSSEVQNGSPMSQTETVSRSVAPMRGGEITAHWLLTNSTTSADVTGSSASYPEGVNASVLTQFSDSTVQSGGSHTALGDRSYSESSSTSSSESLNSSAPRGERSIAGISYGQVRGTAIEQRTSSDHTDHTYLSSTFTKGERALLSITDNSSSSDIVESSTSYIKISNSSHSEYSSFFHAQTERSNISSYDGEYAQPSTESPVLHTSNLPSYTPTINMPNTSVVLDTDAEFVSDSSSSSSSSSSSSSSSSSSSSGPPLPLPSVSQSHHLFSSILPSTRASVHLLKSTSDASTPWSSSPSPLPVSLTTSTSAPLSVSQTTLPQSSSTPV
B3: 2 kb: FLAG-tagged N-terminal deletion mutant hHEG1 (771-1481) (protein)
chain: MSALLILALVGAAVADYKDDDDKLAAANSSIDLSSGPPLPLPSVSQSHHLFSSILPSTRASVHLLKSTSDASTPWSSSPSPLPVSLTTSTSAPLSVSQTTLPQSSSTPVLPRARETPVTSFQTSTMTSFMTMLHSSQTADLKSQSTPHQEKVITESKSPSLVSLPTESTKAVTTNSPLPPSLTESSTEQTLPATSTNLAQMSPTFTTTILKTSQPLMTTPGTLSSTASLVTGPIAVQTTAGKQLSLTHPEILVPQISTEGGISTERNRVIVDATSGLIPLTSVPTSAKEMTTKLGVTAEYSPASRSLGTSPSPQTTVVSTAEDLAPKSATFAVQSSTQSPTTLSSSASVNSCAVNPCLHNGECVADNTSRGYHCRCPPSWQGDDCSVDVNECLSNPCPSTAMCNNTQGSFICKCPVGYQLEKGICNLVRTFVTEFKLKRTFLNTTVEKHSDLQEVENEITKTLNMCFSALPSYIRSTVHASRESNAVVISLQTTFSLASN

Experiments:
SKM9-2 [1] = experiment: SPR analysis of binding between SKM9-2 and soluble His-tagged minimum epitope peptides (SKMepmin); details: for Kd: His-tagged SKMepmin secreted from transfected HEK293T immobilized on Ni2+-binding sensor chip NTA, analyte 5 µg/mL SKM9-2, running buffer 10 mM HEPES pH 8.1, 150 mM NaCl, 0.005% Tween-20, 50 µM EDTA, read-out: KD (M), dissociation constant; for association rate between SKM9-2 and epitope peptide (in words) / dissociation rate between SKM9-2 and epitope peptide (in words): analyte 5 µg/mL SKM9-2, change caused by the substitution; for affinity of SKM9-2 in contrast to SKMepmin3 (in words): analyte 5 µg/mL SKM9-2, ligand on sensor chip NTA
Procedure: Figure 5 SPR analysis of the binding kinetics between SKM9-2 and mutants of minimum epitope. A soluble His-tagged mutant of minimum epitope (SKMepmin) was secreted from transfected HEK293T and immobilized as a ligand on the Ni^2+-binding sensor chip NTA. The upper sensorgrams show the binding kinetics of analyte (5 µg/mL of SKM9-2) to SKMepmins. The control without any peptide is shown as “No peptide” and the negative control peptide cycle is shown as “Control peptide”. The glycan-digested SKMepmin3 that was treated with Neuraminidase A and O-Glycosidase was used as the negative control peptide. The dissociation constant in the lower bar graph was calculated using the manufacturer’s instructions. RU, response units; Signal sequence, the artificial signal sequence (MAPLLLLLLPLLLLPPAAP).
Figure 7 SPR analysis of bindings of lectin and SKM9-2 to glycosidase-treated SKMepmin3. Purified SKMepmin3 was incubated with α2-3 Neuraminidase S, Neuraminidase A, or Neuraminidase A + O-Glycosidase; and then was immobilized as a ligand on Ni^2+-binding sensor chip NTA. The analytes were used at a concentration of 5 µg/mL. (a) ABA, (b) Jacalin, (c) rACG, (d) SKM9-2. Glycosidase-digested sample was not tested in the experiment with rACG.
Cell lysate or SKMepmin3 was treated with α2-3 Neuraminidase S, α2-3, 6, 8, 9 Neuraminidase A, and O-Glycosidase (New England Biolabs Japan, Tokyo, Japan) in 50 mM sodium phosphate (pH 7.5) containing 1% Nonidet P-40, according to the manufacturer’s instructions. The cell lysate sample was resolved by 4–15% or 6% SDS-PAGE under reducing conditions and detected by western blotting using SKM9-2. The analysis of the SKMepmin3 sample was performed by SPR.
The binding of SKM9-2 or lectin to SKMepmin was measured by SPR analysis. SKMepmin was diluted with a running buffer (10 mM HEPES buffer (pH 8.1) containing 150 mM NaCl and 0.005% Tween-20), flowed on Ni^2+-binding sensor chip NTA (GE Healthcare), and affinity-bound through His-tag as a ligand on the sensor chip. Binding analysis of SKM9-2 was performed in a running buffer containing 50 µM EDTA. A non-treated flow cell was used as a reference cell. SKM9-2, anti-sialyl Lewis^X (CSLEX1, Becton, Dickinson and Company Japan, Tokyo, Japan), rACG (Wako Pure Chemical Industries), biotinylated ABA (J-Oil Mills, Inc., Tokyo, Japan), or biotinylated Jacalin (Vector Laboratories, Inc., Burlingame, CA, USA) (each 5 µg/mL) was injected as an analyte with the running buffer. As a regeneration buffer, 350 mM EDTA was used. The dissociation constant was calculated using the manufacturer’s instructions.

SKM9-2 [2] = experiment: Western blotting using SKM9-2 of HEG1 truncated mutants and epitope-fused GPI-anchor proteins; assay type: binding; details: cell lysates of transfected HEK293T, SDS-PAGE under reducing conditions, 1 µg/mL SKM9-2
From the text: Figure 1 SKM9-2 binding to truncated mutants of HEG1. Schematics of full-length HEG1 (Full) and the truncated mutants are indicated on the left side and the results of western blotting using SKM9-2 are shown on the right side. Truncated amino acid position, which is based on a full-length variant of HEG1 containing exon 6, is shown as a number in the schematic of domain structure. The region of the SKM9-2 epitope is shown as a red square. […] SLURP GPI-anchor protein[18] was used as a fused GPI-anchor protein (violet square). The terminal sequences of the HEG1 peptide are shown in the western blot lane. The samples were resolved by 6% SDS-PAGE (a and b) or 4–15% SDS-PAGE (c) under reducing conditions and were detected by western blotting using SKM9-2. Cyt, cytoplasmic domain; EGFs, EGF related domains; Ser/Thr, serine/threonine rich region; SLURP, secreted lymphocyte antigen-6/urokinase-type plasminogen activator receptor-related peptide; SP, signal peptide; TM, transmembrane domain. Full-length blots are presented in Supplementary Fig. S7.
Figure 2 Epitope mapping of SKM9-2. Schematic of epitope peptides (left side) and western blots resolved by 4–15% SDS-PAGE (right side) are shown. The HEG1 peptide sequences are indicated in the western blot lane. Each epitope peptide was fused with a signal peptide (dashed line square) and a SLURP GPI-anchor protein (violet square). Full-length blots are presented in Supplementary Fig. S8.
Figure 3 Alanine scanning of SKM9-2 epitope. […] Cell lysates of transfected HEK293T (upper panel) or transfected ACC-MESO1 (lower panel) were resolved by 4–15% SDS-PAGE and analyzed by western blotting using SKM9-2. (b) S897A mutant of FLAG-tagged HEG1 in HEK293T was resolved by 4–15% SDS-PAGE and analyzed by western blotting using SKM9-2 (upper panel) or anti-FLAG mAb (lower panel). Native HEG1 in ACC-MESO4 and FLAG-tagged HEG1 without mutation in HEK293T were used as controls. Full-length blots are presented in Supplementary Fig. S9.
Sequences of tested HEG1 are shown in Supplementary Dataset. Full-length HEG1 cDNA was synthesized from total RNA purified with TRIzol reagent (Thermo Fisher Scientific) from ACC-MESO-4, using an oligo dT primer and SuperScript II RNase H reverse transcriptase (Thermo Fisher Scientific). cDNA encoding the HEG1 open reading frame was amplified by PCR using PrimeSTAR HS DNA Polymerase (Takara Bio Inc., Shiga, Japan). The HEG1 cDNA was cloned and inserted into the pcDNA3.1(−) mammalian expression vector (Thermo Fisher Scientific). For analyses of N-terminal truncation, we inserted mutants into pFLAG-CMV1 (Sigma-Aldrich Japan K.K., Tokyo, Japan). For analyses of C-terminal deletion lacking the transmembrane domain, we used mutants that were fused with a GPI-anchor protein, SLURP1-gpi[18], in pcDNA3.1(+) (Thermo Fisher Scientific) (Supplementary Dataset). Alanine substituted mutants were prepared using site directed mutagenesis. To produce a soluble epitope peptide, a modified HEG1 signal peptide and a C-terminal tag containing the FLAG tag plus a polyhistidine sequence were used in the mammalian expression vector pEF-BOS[39] (Supplementary Dataset). The plasmid constructs were transfected with Lipofectamine 3000 (Thermo Fisher Scientific). The HEG1 peptide-expressing 293 H clone was obtained by selection with geneticin (Thermo Fisher Scientific).
Monolayer cells were solubilized with 20 mM Tris buffer (pH 8.0) containing 1% SDS, 1 mM phenylmethylsulfonyl fluoride, 125 mU/mL Benzonase Nuclease (Merck Millipore Co., Tokyo, Japan) (25 µL/cm^2 culture surface area). The lysate (10 µL/lane) was resolved by SDS-PAGE under reducing conditions using 6% polyacrylamide gels or 4–15% precast gels (Bio-Rad Laboratories Inc., Hercules, CA, USA). […]

Molecule | Kd (SKM9-2 [1]) | association rate between SKM9-2 and epitope peptide (in words) (SKM9-2 [1]) | affinity of SKM9-2 in contrast to SKMepmin3 (in words) (SKM9-2 [1]) | recognition by SKM9-2 upon western blot analysis (SKM9-2 [2]) | dissociation rate between SKM9-2 and epitope peptide (in words) (SKM9-2 [1])
MAPLLLLLLPLLLLPPAAPGGAKAPSLVSLPAGGDYKDDDDKHHHHHHHH [SKMepmin4] | 1.15e-08 M | decreased | decreased | – | –
7.62: 887-EKVITESKSPSLVSLPTEST-906 -SLURP GPI | – | – | – | clearly detected | –
7.626: 887-EKVITESKSPSLVSLP-902 -SLURP GPI | – | – | – | weakly recognized | –
MAPLLLLLLPLLLLPPAAPGGSKAPTLVSLPAGGDYKDDDDKHHHHHHHH [SKMepmin7] | 6.17e-08 M | – | further reduced | – | –
MAPLLLLLLPLLLLPPAAPGGSKAPSLVTLPAGGDYKDDDDKHHHHHHHH [SKMepmin9] | 6.38e-09 M | – | restored | – | increased
MAPLLLLLLPLLLLPPAAPGGSKAPALVSLPAGGDYKDDDDKHHHHHHHH [SKMepmin6] | 4.2e-08 M | – | decreased | – | increased
MAPLLLLLLPLLLLPPAAPGGTKAPSLVSLPAGGDYKDDDDKHHHHHHHH [SKMepmin5] | 2.9e-09 M | hardly influenced | restored | – | hardly influenced
MAPLLLLLLPLLLLPPAAPGGSKAPSLVSLPTGGDYKDDDDKHHHHHHHH [SKMepmin2] | 6.22e-09 M | increased | – | – | –
MAPLLLLLLPLLLLPPAAPGGSKAPSLVALPAGGDYKDDDDKHHHHHHHH [SKMepmin8] | 3.25e-08 M | – | decreased | – | increased
MAPLLLLLLPLLLLPPAAPGGSKSPSLVSLPTGGDYKDDDDKHHHHHHHH [SKMepmin1] | 8.75e-09 M | – | – | – | –
7.627: 887-EKVITESKSPSLVS-900 -SLURP GPI | – | – | – | not bound | –
B1 | – | – | – | recognized | –
B2 | – | – | – | recognized | –
B3 | – | – | – | recognized | –

Source: article PMC6155162, “Identification of mesothelioma-specific sialylated epitope recognized with monoclonal antibody SKM9-2 in a mucin-like membrane protein HEG1” (Scientific Reports, 2018)
